The values that follow come from PMC11507932, “Comparative Analysis on Polyphenolic Composition of Different Olive Mill Wastewater and Related Extra Virgin Olive Oil Extracts and Evaluation of Nutraceutical Properties by Cell-Based Studies” (Foods, 2024).

Series [1] is described as follows: Hypochlorous acid scavenging assay (DHR oxidation). It counts as biochemical. The following applies: mean ± SD (n = 3). As for the experimental part:
The uptake capacity of hypochlorous acid (HOCl^−) was determined by monitoring the effect of OMWW extracts in the HOCl^− induced oxidation of dihydrorhodamine (DHR) to rhodamine, as reported by Gomes et al.. The fluorescence was read at 37 °C for 5 min, at wavelengths of 485 ± 20 nm and 528 ± 20 nm. The results were expressed as the inhibition, in IC50, of HOCl^− induced DHR oxidation.

Series [2] is described as follows: Superoxide radical scavenging assay (NBT reduction). In kind it is biochemical. The settings on record: mean ± SD (n = 3). As for the experimental part: The superoxide radical (O2^−) scavenging capacity was spectrophotometrically evaluated, in accordance with Gomes et al.. Absorbance was read at 560 nm for 6 min at 37 °C in a Synergy HT Microplate Reader. The results were expressed as IC50, of the reduction in NBT to a purple-colored diformazan by the reaction with O2.

The test system of series [3] is co-culture of Caco-2 and HT29-MTX cell lines. Nature of the series: Intestinal permeability assay, Caco-2/HT29-MTX co-culture, LC-MS quantification. It counts as in vitro ADME, human. The settings on record: for calculated concentration, basolateral side / calculated concentration, apical side: OMWW B1 sample, mean ± SD (n = 3); for calculated concentration, apical side: apical (100% reference); for Mean Permeation Rate (±SD) at 240 min: polyphenol within OMWW B1 sample (500 µg/mL), apical to basolateral. As for the experimental part:
The instrumental setup consisted of an Agilent (Santa Clara, CA, USA) 1290 UHPLC system, which included a binary pump, a column oven maintained at 40 °C, and a temperature-controlled autosampler. This system was connected to a Sciex (Concord, ON, Canada) QTRAP 6500+ mass spectrometer operating as a triple quadrupole, equipped with an IonDrive™ Turbo V source performing electrospray ionization (ESI). […] The instrument control and data acquisition were performed using Sciex Analyst® version 1.7 software and MultiquantTM software version 3.0.3. Data analysis was carried out using Microsoft 365® Excel software (Albuquerque, NM, USA) and GraphPad (San Diego, CA, USA) Prism version 9.0.2. The mass spectrometry selected reaction monitoring (SRM) method was operated in negative ion mode. For each compound, declustering potential (DP), collision energy (CE), and collision exit potential (CxP) were optimized, and three transitions were considered for analysis. One transition was used for quantification (Q), while the other two were used as qualifiers (q). The transition list and additional operational parameters are already reported. A stock solution of each standard compound, including the internal standard, was prepared in MeOH at a concentration of 100 μg/mL and stored at −20 °C. Calibration curves were freshly prepared in pure LC-MS water. […] [34]. The experiments were performed 21 days after seeding the cells in 12 well plates. During this period, the transepithelial electrical resistance (TEER) was monitored to evaluate the cell monolayer integrity. On the last day, cell monolayers were pre-equilibrated with fresh HBSS (pH 7.4) at 37 °C for 30 min. […] At the same time, the TEER was evaluated, using an EVOM Epithelial Volthometer Instrument equipped with a chopstick electrode (World Precision Instruments, Sarasota, FL, USA). After each sampling time, the basolateral side was replaced with the same HBSS volume. Samples were conserved at −20 °C for subsequent LC/ESI-MS analysis, according to Section 2.5.

The test system is the same in series [4]. The arrangement: method as in PMID 37446813. The settings on record: tyrosol alone, same model; cited from earlier work.
The nature of series [5]: ABTS radical cation scavenging assay. It counts as biochemical. The following applies: mean ± standard error (n = 3); 5 min, rt. As to the method:
The ABTS free radical scavenging activity of samples was evaluated by radical cation colorimetric assay in accordance with Cuffaro et al.. Briefly, the ABTS solution (7 mM of aqueous solution of ABTS with 2.45 mM potassium persulfate in a 1:1 ratio) was incubated for 12 h in the dark at rt. Then, the solution was diluted with EtOH to obtain an absorbance of 0.7 at 750 nm. A total of 10 μL of sample solution (1 mg/mL to 0.01 mg/mL) in EtOH was mixed with 180 μL of ABTS solution and the solution was incubated for 5 min at rt. The final absorbance was read at 734 nm in a Molecular Devices […] (200-1000 nm) UV/Vis spectrophotometer. The % scavenging ability was calculated as follows:% scavenging ability = ([…] = ABTS solution absorbance Abssample = ABTS solution containing the test compound absorbance. […] Trolox® was employed as positive control and was treated under the same conditions as the samples. All experiments were performed in triplicate.

Series [6] in a line: DPPH free radical scavenging assay. In kind it is biochemical. The following applies: mean ± standard error (n = 3); 45 min, rt. As for the experimental part: The antiradical activity of OMWW and EVOO samples was assessed by the DPPH free radical scavenging, as reported by Cuffaro et al.. Briefly, 100 μL of DPPH MeOH solution (40.0 μg/mL) was added to 100 μL of the sample solution in MeOH (1 mg/mL to 0.01 mg/mL), and the resulting solution was incubated for 45 min at rt and in the dark. The absorbance was read at 517 nm in a Molecular Devices […] (200-1000 nm) UV/Vis spectrophotometer. Trolox® was the positive control and was treated under the same conditions as the samples. The percent of antioxidant activity (%AA) was calculated according to the following equation:%AA = ([…] = DPPH solution absorbance Abssample = DPPH solution containing the test compound absorbance […] All experiments were performed in triplicate.
Background: DPPH is a stable violet radical that fades when it is reduced.

Marks after values point to notes of the source that are not given here.

For the molecule `O.Oc1cc(O)c2c(c1)O[C@H](c1ccc(O)c(O)c1)[C@@H](O)C2` [Catechin], in series [1], the “HOCl^− scavenging IC50” value was 0.20 ± 0.01 ^b μg/mL. Besides, in series [2], the “O2^− scavenging IC50” value is 18.01 ± 0.34 ^c,d μg/mL.
Consider `O=C(O)/C=C/c1ccc(O)c(O)c1` [Caffeic acid], for which the “calculated concentration, basolateral side” value in series [3] (30 min) is recorded as 0,31 ± 0,10 ng/mL; in series [3] (60 min), 0,40 ± 0,25 ng/mL; in series [3] (120 min), 1,29 ± 0,31 ng/mL; in series [3] (180 min) it was 2,00 ± 0,01 ng/mL; in series [3] (240 min), 1,89 ± 0,42 ng/mL. Besides, in series [3], the “calculated concentration, apical side” value is on record as 7,31 ± 0,74 ng/mL. Also, the “Mean Permeation Rate (±SD) at 240 min” value in series [3] (240 min) is 26 ± 3%; in series [3] (240 min, listed as caffeic acid), 26%.
`O=C(O)c1cc(O)c(O)c(O)c1` [Gallic acid]: in series [1], the “HOCl^− scavenging IC50” value was 2.60 ± 0.05 ^b μg/mL. The “O2^− scavenging IC50” value in series [2] is reported as 6.34 ± 0.21 ^d μg/mL.
`OCCc1ccc(O)c(O)c1` [Hydroxytyrosol]: the “calculated concentration, basolateral side” value in series [3] (30 min) was 7,42 ± 5,35 ng/mL; in series [3] (60 min) it was 9,12 ± 5,78 ng/mL; in series [3] (120 min), 15,75 ± 5,02 ng/mL; in series [3] (180 min), 19,40 ± 2,55 ng/mL; in series [3] (240 min), 15,20 ± 1,98 ng/mL. For the same molecule, in series [3], the “calculated concentration, apical side” value is 45,30 ± 0,85 ng/mL. Moreover, the “Mean Permeation Rate (±SD) at 240 min” value is 34 ± 5% in series [3] (240 min) and 34% in series [3] (240 min, listed as hydroxytyrosol).
As for `OCCc1ccc(O)cc1` [Tyrosol], the “calculated concentration, basolateral side” value in series [3] (30 min) is 155,50 ± 6,36 ng/mL; in series [3] (60 min), 224,50 ± 21,92 ng/mL; in series [3] (120 min), 259,50 ± 47,38 ng/mL; in series [3] (180 min), 256,50 ± 13,44 ng/mL; in series [3] (240 min) it was 314,00 ± 33,94 ng/mL. For the same molecule, the “calculated concentration, apical side” value in series [3] was 587,50 ± 234,05 ng/mL. Further, in series [3] (240 min), the “Mean Permeation Rate (±SD) at 240 min” value was 59 ± 29%. Further, the “permeation (release) at 240 min” value in series [4] is on record as 78%.
With `Cc1c(C)c2c(c(C)c1O)CCC(C)(C(=O)O)O2` (stereo not drawn) [Trolox], in series [5], the “ABTS IC50” value was 0.003 ± 0.0004 ^i mg/mL. The “DPPH IC50” value in series [6] was 0.007 ± 0.001 ^h mg/mL.
